Data published in patent US20040076590A1, “Antibacterial toothpaste and mouthwash formulations” (priority 2002, published 2004).

Assays:
[1] = system: Stearns strain of B. anthracis; type: cell-based, Bacillus anthracis
[2] = system: Six strains of Bacillus species; assay: Nathans Agar Well Diffusion technique, 3 replicate assays; type: cell-based; conditions: for average zone of inhibition: average over Bacillus strains tested
[3] = system: Ames strain of B. anthracis; type: cell-based, Bacillus anthracis
[4] = system: P. aeruginosa; assay: d-limonene inoculation assay (phenol-coefficient), subculture at 24/48/72 hr; type: cell-based, Pseudomonas aeruginosa; design: key: NG = no growth; conditions: >10^5 CFU/ml in 2 ml d-limonene
[5] = system: E. faecium; assay: as above; type: cell-based, Enterococcus faecium; design: key: NG = no growth; conditions: >10^5 CFU/ml in 2 ml d-limonene
[6] = system: S. aureus; assay: as above; type: cell-based, Staphylococcus aureus; design: key: NG = no growth; conditions: >10^5 CFU/ml in 2 ml d-limonene
[7] = system: E. coli; assay: as above; type: cell-based, Escherichia coli; design: key: NG = no growth; conditions: >10^5 CFU/ml in 2 ml d-limonene
[8] = system: S. maltophilia; type: cell-based, Stenotrophomonas maltophila; design: key: NG = no growth
[9] = system: Streptococcus pyogenes; type: cell-based
[10] = system: K. pneumoniae; assay: d-limonene inoculation assay (phenol-coefficient), subculture at 24/48/72 hr; type: cell-based, Klebsiella pneumoniae; design: key: NG = no growth; conditions: >10^5 CFU/ml in 2 ml d-limonene
[11] = system: Ac. baum/haemo; assay: as above; type: cell-based, Acinetobacter baummii/haemolyticus; design: key: NG = no growth; conditions: >10^5 CFU/ml in 2 ml d-limonene
[12] = system: other beta hemolytic streptococci; type: cell-based
[13] = system: Streptococcus mutans; type: cell-based
[14] = system: E. faecalis; assay: d-limonene inoculation assay (phenol-coefficient), subculture at 24/48/72 hr; type: cell-based, Enterococcus faecalis; design: key: NG = no growth; conditions: >10^5 CFU/ml in 2 ml d-limonene
[15] = system: Ent. cloacae; type: cell-based, Enterobacter cloacae; design: key: NG = no growth
[16] = system: S. epidermidis; assay: d-limonene inoculation assay (phenol-coefficient), subculture at 24/48/72 hr; type: cell-based, Staphylococcus epidermidis; design: key: NG = no growth; conditions: >10^5 CFU/ml in 2 ml d-limonene
[17] = system: S. marcescens; type: cell-based, Serratia marcescens; design: key: NG = no growth

## OCl [NaOCl, sodium hypochlorite]
[1]
  susceptibility of the strain to the product: susceptible to all products tested except
[2]; only inhibited P. polymyxa, B. sphaericus and B. cereus
  average zone size: 16 mm
[3]
  zone of inhibition: no zones of inhibition

## C/C(=C\C(=O)OCCCCCCCCC(=O)O)C[C@@H]1OC[C@H](C[C@@H]2O[C@H]2[C@@H](C)[C@H](C)O)[C@@H](O)[C@H]1O [Bactroban]
[1]
  average inhibition zone: 45 mm
  susceptibility of the strain to the product: susceptible
[2]
  average zone of inhibition: 46 mm
[3]
  susceptibility of the strain to the product: susceptible
  zone of inhibition: 35 mm

## NCc1ccc(S(N)(=O)=O)cc1 [mafenide acetate]
[1]
  average inhibition zone: 38 mm
  susceptibility of the strain to the product: susceptible
[2]
  average zone of inhibition: 36 mm
[3]
  susceptibility of the strain to the product: susceptible
  zone of inhibition: 34 mm

## C=C(C)[C@H]1CC=C(C)CC1 [d-limonene]
[1]
  average inhibition zone: 30 mm
[2]
  average zone of inhibition: 21 mm
[4]; 24 hr
  Growth at 24 hr: NG
[4]; 48 hr
  Growth at 48 hr: NG
[4]; 72 hr
  Growth at 72 hr: NG
[5]; 24 hr
  Growth at 24 hr: NG
[5]; 48 hr
  Growth at 48 hr: NG
[5]; 72 hr
  Growth at 72 hr: NG
[6]; 24 hr
  Growth at 24 hr: NG*
[6]; 48 hr
  Growth at 48 hr: NG
[6]; 72 hr
  Growth at 72 hr: NG
[7]; 24 hr
  Growth at 24 hr: NG
[7]; 48 hr
  Growth at 48 hr: NG
[7]; 72 hr
  Growth at 72 hr: NG
[8]; 24 hr
  Growth at 24 hr: NG
[8]; 48 hr
  Growth at 48 hr: NG
[8]; 72 hr
  Growth at 72 hr: NG
[9]
  eradication of the pathogen: effective in eradicating
[10]; 24 hr
  Growth at 24 hr: NG
[10]; 48 hr
  Growth at 48 hr: NG
[10]; 72 hr
  Growth at 72 hr: NG
[11]; 24 hr
  Growth at 24 hr: NG
[11]; 48 hr
  Growth at 48 hr: NG
[11]; 72 hr
  Growth at 72 hr: NG
[3]
  zone of inhibition: 21 mm
[12]
  eradication of the pathogen: effective in eradicating
[13]
  eradication of the pathogen: effective in eradicating
[14]; 24 hr
  Growth at 24 hr: NG
[14]; 48 hr
  Growth at 48 hr: NG
[14]; 72 hr
  Growth at 72 hr: NG
[15]; 24 hr
  Growth at 24 hr: NG
[15]; 48 hr
  Growth at 48 hr: NG
[15]; 72 hr
  Growth at 72 hr: NG
[16]; 24 hr
  Growth at 24 hr: NG
[16]; 48 hr
  Growth at 48 hr: NG
[16]; 72 hr
  Growth at 72 hr: NG
[17]; 24 hr
  Growth at 24 hr: NG*
[17]; 48 hr
  Growth at 48 hr: NG
[17]; 72 hr
  Growth at 72 hr: NG

## O=[N+]([O-])[O-].[Ag+] [AgNO3, silver nitrate]
[1]
  average inhibition zone: 18 mm
[2]
  average zone of inhibition: 16 mm
[3]
  zone of inhibition: 16 mm

## NC(=O)N/N=C/c1ccc([N+](=O)[O-])o1 [Furacin, nitrofurazone]
[1]
  average inhibition zone: 33 mm
[2]
  average zone of inhibition: 35 mm
